Values quoted from earlier work as cited in US20030190354A1 (priority 2002, published 2003).
Where a name gives a salt, the structure may show the parent alone.

Conditions: 0.2 M sodium chloride

For `COc1ccc(C(CN(C)C)C2(O)CCCCC2)cc1` (racemic) [Venlafaxine hydrochloride, (R/S)-1-[2-(dimethylamino)-1-(4-methoxyphenyl)ethyl] cyclohexanol hydrochloride], the “octanol: water partition coefficient” value is given as 0.43.
